Test results taken from patent publication US20110166126A1, “Compositions and Methods for Modulating Endophthalmitis Using Fluoroquinolones” (priority 2007, published 2011).
Values after ≈ are worked out from the molar mass of the structure shown. “Also recorded” adds a separate entry of the source. One block for each compound: values may come before it.

Tests used:
[1] = test system: LPS-stimulated cytokine production in human THP-1 monocytes; test: Inhibition of LPS-induced cytokine expression in human THP-1 monocytes (multiplex Luminex); type: cell-based; design: key to Inhibition of LPS-stimulated G-CSF production / Inhibition of LPS-stimulated GM-CSF production / Inhibition of LPS-stimulated IL-12p40 production / Inhibition of LPS-stimulated IL-1α production / Inhibition of LPS-stimulated IL-1β production / Inhibition of LPS-stimulated IL-1ra production / Inhibition of LPS-stimulated IL-6 production / Inhibition of LPS-stimulated IL-8 production / Inhibition of LPS-stimulated IP-10 production / Inhibition of LPS-stimulated MCP-1 production / Inhibition of LPS-stimulated MIP-1α production / Inhibition of LPS-stimulated VEGF production: “X” signifies significant inhibition at a particular concentration
Experimental: Human THP-1 monocytes (ATCC TIB 202) were purchased from American Type Culture Collection (Manassas, Va.) and maintained in RPMI 1640 medium (Invitrogen, Carlsbad, Calif.) supplemented with 10% fetal bovine serum (“FBS”, Invitrogen, Carlsbad, Calif.), 100 U/mL of penicillin (Invitrogen, Carlsbad, Calif.), and 100 μg/mL of streptomycin (Invitrogen, Carlsbad, Calif.) at 37° C. in a humidified incubator with 5% CO2. THP-1 cells were pre-cultured in RPMI 1640 medium containing 10% dialyzed serum for 24 h. […] Each treatment was performed in triplicate.
Samples were analyzed using multiplex bead technology, which utilizes microspheres as the solid support for immunoassays and allows the analysis of all cytokines from each sample (D. A. Vignali, J. Immunol. Methods, Vol. 243, 243-255 (2000)). Sixteen cytokines were measured according to the manufacturer's instructions. Briefly, 50 μl, of medium samples were incubated with antibody-coated capture beads overnight at 4° C. Washed beads were further incubated with biotin-labeled anti-human cytokine antibodies for 2 hours at room temperature followed by incubation with streptavidin-phycoerythrin for 30 min. Samples were analyzed using Luminex 200™ (Luminex, Austin, Tex.) and Beadview software v1.0 (Upstate Cell Signaling Solutions, Temecula, Calif.). Standard curves of known concentrations of recombinant human cytokines were used to convert fluorescence units (median fluorescence intensity) to cytokine concentration in pg/mL. Only the linear portions of the standard curves were used to quantify cytokine concentrations, and in instances where the fluorescence reading exceeded the linear range of the standard curve, an appropriate dilution was performed to ensure that the concentration was in the linear portion of the curve.
All cytokine concentrations (pg/mL) were expressed as mean±standard deviation. Statistical analysis comparing effects of treatment across groups was performed using a one-way ANOVA with a Dunnett's post-hoc comparison test using either vehicle control or LPS treatment as references. For all assays, p≦0.05 was predetermined as the criterion of statistical significance.

[2] = test system: IL-1β induced IL-8 release in THP-1 monocytes; test: Effect on IL-1β-induced cytokine (IL-8) release from human THP-1 monocytes (Luminex); type: cell-based; conditions: for IC50: Homo sapiens, THP-1, 30 ng/mL IL-1β, four-parameter logistic fit, read-out: IC50 for inhibition of IL-1β induced IL-8 release; for IC50 / Effect on IL-1β induced IL-8 release: 18 h
Experimental: Each treatment was performed in triplicate. Media was collected by centrifugation and used for determination of cytokine content using a cytokine Luminex kit. The alamarBlue assay was performed to evaluate cell viability.
After determining the optimal concentration of IL-1β to induce cytokine release (30 ng/mL), cells were pre-cultured in RPMI-1640 medium containing 10% dialyzed FBS in a T-75 flask. […] Each treatment was performed in triplicate. Media were collected and used for determination of cytokine content using a cytokine Luminex kit. AlamarBlue assay was performed to evaluate the cell viability.
(§1) Luminex: Median fluorescence intensity (MFI) was used to obtain the concentration of each cytokines in pg/ml based on the standard curve of each cytokine assayed by Luminex. The linear range of the standard curve for each cytokine was used for determination of cytokine concentration.
To determine inhibition of IL-1β-induced cytokine release into the medium by dexamethasone or fluoroquinolone compounds as well cell viability, statistical analysis was performed using one-way ANOVA-Dunnett's test on raw data, and P<0.05 was considered statistically significant.
A concentration vs. effect curve was plotted for experiment 2, using averaged data from selected samples. […] Data were fitted to a re-parameterized four-parameter logistic equation using similar methodology as that previously described, and utilizing the statistical analysis software JMP8.

[3] = test system: THP-1 monocytes; test: IL-1β and LPS induced IL-8 release from THP-1 monocytes (experiment 1); type: cell-based, Human; conditions: 300, 100, 60, 30 and 10 ng/mL, 18 h
Experimental: Human monocytic (THP-1) cells were pre-cultured in basal RPMI-1640 medium (commercially available, for example, from Sigma Aldrich) containing 10% dialyzed FBS in a T-75 flask. After 24 h, cells were seeded in 48-well plates in RPMI-1640 medium containing 2% dialyzed FBS at a density of 5.0×10^5 cells/mL with vehicle, IL-1β (300, 100, 60, 30 and 10 ng/mL) and LPS (1 μg/mL) for 18 h (Table 3-1). Each treatment was performed in triplicate. Media were collected and used for determination of cytokine content using a cytokine Luminex kit. The alamarBlue assay was performed to evaluate the cell viability.
as §1
Data was expressed as mean±SD. To determine induction of cytokine release into the medium by IL-1β or LPS, statistical analysis was performed using one-way ANOVA-Dunnett's test, and P<0.05 was considered statistically significant.

[4] = test system: LPS-stimulated cytokine production in human THP-1 monocytes; conditions: earlier study [8] (PH07025); better potency compared to moxifloxacin; cited from earlier work
[5] = test system: primary human corneal epithelial cells (HCEpiC); conditions: earlier study (PH07038); comparable or better potency compared to moxifloxacin; cited from earlier work
[6] = 1 μg/mL, 10 μg/mL LPS, 18 hours
[7] = 10 μg/mL, 10 μg/mL LPS, 18 hours
[8] = 30 μg/mL, 10 μg/mL LPS, 18 hours
[9] = LPS-induced cytokine production, THP-1 monocytes

IC50 [2]: 10.9 ± 4.8 µg/mL (≈ 27.2 µM)
Compound: COc1c(N2C[C@@H]3CCCN[C@@H]3C2)c(F)cc2c(=O)c(C(=O)O)cn(C3CC3)c12 [Moxifloxacin, moxifloxacin, reference compound]
Inhibition of LPS-stimulated IL-12p40 production [1, 6]: X
Inhibition of LPS-stimulated IL-1ra production [1, 7]: X
Inhibition of LPS-stimulated IL-6 production [1, 7]: X
Inhibition of LPS-stimulated IL-12p40 production [1, 7]: X
Inhibition of LPS-stimulated IL-1ra production [1, 8]: X
Inhibition of LPS-stimulated IL-1α production [1, 8]: X
Inhibition of LPS-stimulated IL-1β production [1, 8]: X
Inhibition of LPS-stimulated IL-8 production [1, 8]: X
Inhibition of LPS-stimulated IL-12p40 production [1, 8]: X
Inhibition of LPS-stimulated IP-10 production [1, 8]: X
Inhibition of LPS-stimulated MIP-1α production [1, 8]: X
Inhibition of LPS-stimulated VEGF production [1, 8]: X
Concentration at which a significant inhibitory effect was observed for IL-1ra [1, 9]: 10 µg/mL
Concentration at which a significant inhibitory effect was observed for IL-1α [1, 9]: 30 µg/mL
Concentration at which a significant inhibitory effect was observed for IL-1β [1, 9]: 30 µg/mL
Concentration at which a significant inhibitory effect was observed for IL-6 [1, 9]: 10 µg/mL
Concentration at which a significant inhibitory effect was observed for IL-8 [1, 9]: 30 µg/mL
Concentration at which a significant inhibitory effect was observed for IL-12p40 [1, 9]: 1 µg/mL
Concentration at which a significant inhibitory effect was observed for IP-10 [1, 9]: 30 µg/mL
Concentration at which a significant inhibitory effect was observed for MIP-1α [1, 9]: 30 µg/mL

Compound: IL-1β: interleukin-1β, used to induce cytokine release in THP-1 cells
Stimulation of IL-8 release [3]: stimulated

IC50 [2]: 7.5 µg/mL (≈ 19 µM)
Compound: N[C@@H]1CCCCN(c2c(F)cc3c(=O)c(C(=O)O)cn(C4CC4)c3c2Cl)C1 [BOL-303224-A, besifloxacin]
Inhibition of LPS-stimulated IL-1α production ([1]; 0.1 μg/mL, 10 μg/mL LPS, 18 hours): X
Inhibition of LPS-stimulated G-CSF production [1, 6]: X
Inhibition of LPS-stimulated IL-1ra production [1, 6]: X
Inhibition of LPS-stimulated IL-1α production [1, 6]: X
Inhibition of LPS-stimulated IL-6 production [1, 6]: X
Inhibition of LPS-stimulated G-CSF production [1, 7]: X
Inhibition of LPS-stimulated IL-1ra production [1, 7]: X
Inhibition of LPS-stimulated IL-1α production [1, 7]: X
Inhibition of LPS-stimulated IL-6 production [1, 7]: X
Inhibition of LPS-stimulated VEGF production [1, 7]: X
Inhibition of LPS-stimulated G-CSF production [1, 8]: X
Inhibition of LPS-stimulated GM-CSF production [1, 8]: X
Inhibition of LPS-stimulated IL-1ra production [1, 8]: X
Inhibition of LPS-stimulated IL-1α production [1, 8]: X
Inhibition of LPS-stimulated IL-1β production [1, 8]: X
Inhibition of LPS-stimulated IL-6 production [1, 8]: X
Inhibition of LPS-stimulated IL-8 production [1, 8]: X
Inhibition of LPS-stimulated IL-12p40 production [1, 8]: X
Inhibition of LPS-stimulated IP-10 production [1, 8]: X
Inhibition of LPS-stimulated MCP-1 production [1, 8]: X
Inhibition of LPS-stimulated MIP-1α production [1, 8]: X
Inhibition of LPS-stimulated VEGF production [1, 8]: X
Effect on LPS-stimulated production of RANTES ([1]; 0.1-30 μg/mL, THP-1 monocytes): Neither moxifloxacin nor compound having Formula IV altered
Effect on LPS-stimulated production of fractalkine ([1]; 0.1-30 μg/mL, THP-1 monocytes): Neither moxifloxacin nor compound having Formula IV altered
Effects on GM-CSF, IL-1β, IL-8, IP-10, MCP-1, and MIP-1α after LPS stimulation (comparison of the two fluoroquinolones) ([1]; FIG. 1): comparable effects
Relative potency on G-CSF, IL-1α, IL-1ra, IL-6, and VEGF ([1]; FIG. 2, LPS-stimulated THP-1 monocytes): better potency than moxifloxacin
Concentration at which a significant inhibitory effect was observed for G-CSF [1, 9]: 1 µg/mL
Concentration at which a significant inhibitory effect was observed for GM-CSF [1, 9]: 30 µg/mL
Concentration at which a significant inhibitory effect was observed for IL-1α [1, 9]: 0.1 µg/mL
Concentration at which a significant inhibitory effect was observed for IL-1β [1, 9]: 30 µg/mL
Concentration at which a significant inhibitory effect was observed for IL-6 [1, 9]: 1 µg/mL
Concentration at which a significant inhibitory effect was observed for IL-8 [1, 9]: 30 µg/mL
Concentration at which a significant inhibitory effect was observed for IL-12p40 [1, 9]: 30 µg/mL
Concentration at which a significant inhibitory effect was observed for IP-10 [1, 9]: 30 µg/mL
Concentration at which a significant inhibitory effect was observed for MCP-1 [1, 9]: 30 µg/mL
Concentration at which a significant inhibitory effect was observed for MIP-1α [1, 9]: 30 µg/mL
Concentration as low as which a significant inhibitory effect was seen on IL-1α ([1]; LPS-stimulated THP-1 monocytes): 100 ng/mL
Concentration at which a significant inhibitory effect was seen on G-CSF ([1]; LPS-stimulated THP-1 monocytes): 1000 ng/mL
Concentration at which a significant inhibitory effect was seen on IL-1ra ([1]; LPS-stimulated THP-1 monocytes): 1000 ng/mL
Concentration at which a significant inhibitory effect was seen on IL-6 ([1]; LPS-stimulated THP-1 monocytes): 1000 ng/mL
Effect on IL-1β induced IL-8 release ([2]; 10 μg/mL): significantly reduced; also recorded: diminished
Effect on IL-1β induced IL-8 release ([2]; 30 μg/mL and 10 μg/mL): significantly reduced
Concentration needed to reduce IL-1β-induced IL-8 release relative to moxifloxacin ([2]; THP-1 cells): at a lower concentration than moxifloxacin
Effect on lipopolysaccharide (LPS)-stimulated cytokine expression in THP-1 human monocytes [4]: significantly inhibited
Effect on IL-1β-stimulated cytokine expression in HCEpiC [5]: significantly inhibited
